# Experimental data published in patent publication US20180002319A1, “MACROCYCLIC PICOLINAMIDE COMPOUNDS WITH FUNGICIDAL ACTIVITY” (DOW AGROSCIENCES LLC, priority 2014, published 2018).
# Where two headings read alike, the source gives them in different places.
# Experiments:
# Zymoseptoria tritici = test: Leaf Blotch of Wheat (SEPTTR) fungicidal activity; type: in vivo; details: High Volume application, 100 ppm, wheat leaf blotch
# Outline: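 Wheat seedlings (Yuma, first leaf emerged) were sprayed to run-off with compound in acetone/water containing Triton X-100 and inoculated with Z. tritici spores before or after treatment. Percent disease control comes from 0–100% severity on treated versus untreated plants.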
# Puccinia triticina = test: Wheat Brown Rust (PUCCRT) fungicidal activity; type: in vivo; details: High Volume application, 100 ppm
# Outline: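 Disease severity (0–100%) on first leaves compared with untreated plants gives percent control. Plants (wheat var. Yuma) received spore inoculum before or after run-off spraying with compound in acetone/Triton X-100 water, held overnight at 22° C, 100% RH, then in a 24° C greenhouse.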
# [1] = 24 h, 1 day protectant, read-out: SEPTTR disease control, 1DP (1 Day Protectant)
# [2] = 72 h, 3 day curative, read-out: SEPTTR disease control, 3DC (3 Day Curative)
# [3] = 24 h, 1 day protectant, read-out: PUCCRT disease control, 1DP (1 Day Protectant)
# [4] = 72 h, 3 day curative, read-out: PUCCRT disease control, 3DC (3 Day Curative)
SMILES,pest or weed control at 100 ppm (Zymoseptoria tritici; [1]) [%],pest or weed control at 100 ppm (Zymoseptoria tritici; [2]) [%],pest or weed control at 100 ppm (Puccinia triticina; [3]) [%],pest or weed control at 100 ppm (Puccinia triticina; [4]) [%]
CCCCO[C@H]1CCOC[C@H](NC(=O)c2nccc(OC)c2O)C(=O)O[C@@H](C)[C@@H]1OC(=O)c1ccccc1 [Compound 84],< 80,> 80,> 80,> 80
CCCCO[C@H]1CCOC[C@H](NC(=O)c2nccc(OC)c2O)C(=O)O[C@@H](C)[C@@H]1OC(=O)C1CC1 [Compound 85],< 80,> 80,> 80,> 80
COc1ccnc(C(=O)N[C@H]2COCC[C@H](OCC(C)C)[C@@H](OCC(C)C)[C@H](C)OC2=O)c1O [Compound 86],< 80,> 80,> 80,< 80
CCCCO[C@H]1CCOC[C@H](NC(=O)c2nccc(OC)c2O)C(=O)O[C@@H](C)[C@@H]1OCC(C)C [Compound 87],> 80,< 80,> 80,> 80
COc1ccnc(C(=O)N[C@H]2CCCC[C@H](OCc3ccccc3)[C@@H](OCc3ccccc3)[C@H](C)OC2=O)c1O [Compound 88],> 80,< 80,> 80,–
COc1ccnc(C(=O)N[C@H]2CCCC[C@H](OCC(C)C)[C@@H](OCC(C)C)[C@H](C)OC2=O)c1O [Compound 89],< 80,< 80,< 80,–
COc1ccnc(C(=O)N[C@H]2CCCC[C@H](Oc3ccccc3)[C@@H](OCC(C)C)[C@H](C)OC2=O)c1O [Compound 90],> 80,< 80,> 80,< 80
COc1ccnc(C(=O)N[C@H]2CCCC[C@H](OC)[C@@H](Oc3ccccc3)[C@H](C)OC2=O)c1O [Compound 91],> 80,> 80,> 80,> 80
COc1ccnc(C(=O)N[C@H]2CCCC[C@H](OC)[C@@H](OCC(C)C)[C@H](C)OC2=O)c1O [Compound 92],> 80,> 80,> 80,> 80
COc1ccnc(C(=O)N[C@H]2CCCC[C@H](OCC(C)C)[C@@H](Oc3ccccc3)[C@H](C)OC2=O)c1O [Compound 93],> 80,< 80,> 80,> 80
CCCCCO[C@H]1[C@H](C)OC(=O)[C@@H](NC(=O)c2nccc(OC)c2O)CCCC[C@@H]1OC(=O)c1ccccc1 [Compound 94],> 80,< 80,> 80,< 80
CCCCCO[C@H]1[C@H](C)OC(=O)[C@@H](NC(=O)c2nccc(OC)c2O)CCCC[C@@H]1Oc1ccccc1 [Compound 96],< 80,< 80,> 80,< 80
CCCO[C@H]1[C@H](C)OC(=O)[C@@H](NC(=O)c2nccc(OC)c2O)CCCC[C@@H]1Oc1ccccc1 [Compound 97],> 80,< 80,> 80,> 80
COc1ccnc(C(=O)N[C@H]2CCCC[C@H](Oc3ccccc3)[C@@H](Oc3ccccc3)[C@H](C)OC2=O)c1O [Compound 98],> 80,< 80,> 80,< 80
CCCO[C@H]1CCCC[C@H](NC(=O)c2nccc(OC)c2O)C(=O)O[C@@H](C)[C@@H]1Oc1ccccc1 [Compound 100],> 80,> 80,> 80,> 80
COc1ccnc(C(=O)N[C@H]2COCC[C@H](Cc3ccccc3)[C@@H](OCC(C)C)[C@H](C)OC2=O)c1O [Compound 101],< 80,< 80,< 80,< 80
COc1ccnc(C(=O)N[C@H]2CCCC[C@H](Cc3ccccc3)[C@@H](OCC(C)C)[C@H](C)OC2=O)c1O [Compound 102],> 80,–,> 80,< 80
CCC[C@H]1CCCC[C@H](NC(=O)c2nccc(OC)c2O)C(=O)O[C@@H](C)[C@@H]1OC(=O)C(C)C [Compound 103],< 80,–,> 80,< 80

SMILES,pest or weed control at 100 ppm (Zymoseptoria tritici; [1]) [%],pest or weed control at 100 ppm (Zymoseptoria tritici; [2]) [%],pest or weed control at 100 ppm (Puccinia triticina; [3]) [%],pest or weed control at 100 ppm (Puccinia triticina; [4]) [%]
COc1ccnc(C(=O)N[C@H]2CCCC[C@@H]3OC(C)(C)O[C@H]3[C@H](C)OC2=O)c1O [Compound 104],< 80,< 80,> 80,> 80
COc1ccc(CO[C@H]2[C@H](C)OC(=O)[C@@H](NC(=O)c3nccc(OC)c3O)CCOC[C@@H]2OCc2ccc(OC)cc2)cc1 [Compound 106],> 80,< 80,> 80,–
COc1ccnc(C(=O)N[C@H]2CCCC[C@H](OC)[C@@H](OC3CCCC3)[C@H](C)OC2=O)c1O [Compound 107],> 80,< 80,> 80,> 80
COc1ccnc(C(=O)N[C@H]2CCCC[C@H](OC3CCCC3)[C@@H](OC)[C@H](C)OC2=O)c1O [Compound 108],< 80,< 80,< 80,> 80
COc1ccnc(C(=O)N[C@H]2CCCC[C@H](Oc3ccccc3)[C@@H](OC3CCCC3)[C@H](C)OC2=O)c1O [Compound 109],> 80,< 80,> 80,< 80
COc1ccnc(C(=O)N[C@H]2CCOC[C@H](Oc3ccccc3)[C@@H](Oc3ccccc3)[C@H](C)OC2=O)c1O [Compound 110],> 80,–,> 80,> 80
CCCOC(=O)O[C@H]1CCCC[C@H](NC(=O)c2nccc(OC)c2O)C(=O)O[C@@H](C)[C@@H]1OCC(C)C [Compound 111],< 80,> 80,< 80,< 80
COc1ccnc(C(=O)N[C@H]2COCCC[C@@H](OCC(C)C)[C@H](C)OC2=O)c1O [Compound 112],< 80,< 80,< 80,< 80
COc1ccnc(C(=O)N[C@H]2CCOC[C@H](OC)[C@@H](Oc3ccccc3)[C@H](C)OC2=O)c1O [Compound 113],> 80,> 80,> 80,> 80
CCCO[C@H]1COCC[C@H](NC(=O)c2nccc(OC)c2O)C(=O)O[C@@H](C)[C@@H]1Oc1ccccc1 [Compound 114],> 80,> 80,> 80,> 80
COc1ccnc(C(=O)N[C@H]2CCOC[C@H](OCC(C)C)[C@@H](OCC(C)C)[C@H](C)OC2=O)c1O [Compound 116],–,< 80,< 80,< 80
COc1ccnc(C(=O)N[C@H]2CCOC[C@H](OC(=O)C(C)C)[C@@H](Oc3ccccc3)[C@H](C)OC2=O)c1O [Compound 117],> 80,< 80,< 80,–
COc1ccnc(C(=O)N[C@H]2CCOC[C@H](OCC(C)C)[C@@H](Oc3ccccc3)[C@H](C)OC2=O)c1O [Compound 118],> 80,–,> 80,< 80
C[C@@H]1OC(=O)[C@@H](NC(=O)c2ncccc2O)CCCC[C@H](CC2CCCC2)[C@H]1Oc1ccccc1 [Compound 120],< 80,> 80,> 80,–
COc1ccnc(C(=O)N[C@H]2CCCC[C@H](CC3CCCC3)[C@@H](Oc3ccccc3)[C@H](C)OC2=O)c1O [Compound 121],< 80,> 80,< 80,–
C=CCO[C@@H]1[C@@H](CC2CCCC2)CCCC[C@H](NC(=O)c2nccc(OC)c2O)C(=O)O[C@H]1C [Compound 122],< 80,< 80,< 80,–
COc1ccnc(C(=O)N[C@H]2CCCC[C@H](CC3CCCC3)[C@@H](OC(=O)C(C)C)[C@H](C)OC2=O)c1O [Compound 123],–,< 80,< 80,–
CCCO[C@@H]1[C@@H](CC2CCCC2)CCCC[C@H](NC(=O)c2nccc(OC)c2O)C(=O)O[C@H]1C [Compound 124],< 80,< 80,< 80,< 80
